# ChEMBL document CHEMBL4390652, “Design, biological evaluation and X-ray crystallography of nanomolar multifunctional ligands targeting simultaneously acetylcholinesterase and glycogen synthase kinase-3” (Eur J Med Chem, 2019)
# Experiments:
# [1] = molecular target: LIM domain kinase 2 (Homo sapiens) (UniProt P53671); experiment: Binding affinity to wild-type human full length LIMK2 (M1 to P638 residues) expressed in bacterial expression system assessed as residual binding level at 10 uM by Kinomescan method relative to control
# [2] = molecular target: Aurora kinase A (Homo sapiens) (UniProt O14965); experiment: Binding affinity to wild-type human partial length AURKA (E122 to K401 residues) expressed in mammalian expression system assessed as residual binding level at 10 uM by Kinomescan method relative to control
# Aurora kinase A (Homo sapiens), sequence (O14965 whole entry, the tested form may be a part): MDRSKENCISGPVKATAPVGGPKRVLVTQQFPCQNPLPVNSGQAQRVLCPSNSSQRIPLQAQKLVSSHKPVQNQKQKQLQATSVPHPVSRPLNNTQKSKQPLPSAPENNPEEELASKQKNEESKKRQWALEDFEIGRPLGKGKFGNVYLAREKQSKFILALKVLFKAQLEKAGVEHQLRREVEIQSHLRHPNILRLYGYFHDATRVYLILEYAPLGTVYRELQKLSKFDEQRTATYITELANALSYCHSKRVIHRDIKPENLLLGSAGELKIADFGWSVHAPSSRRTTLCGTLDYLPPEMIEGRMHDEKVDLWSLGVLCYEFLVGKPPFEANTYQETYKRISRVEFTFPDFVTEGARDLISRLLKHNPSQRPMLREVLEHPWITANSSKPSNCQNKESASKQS
# [3] = molecular target: Tyrosine-protein kinase CSK (Homo sapiens) (UniProt P41240); experiment: Binding affinity to wild-type human full length CSK (M1 to L450 residues) expressed in bacterial expression system assessed as residual binding level at 10 uM by Kinomescan method relative to control
# Tyrosine-protein kinase CSK (Homo sapiens), sequence (P41240 2-450 limits assumed): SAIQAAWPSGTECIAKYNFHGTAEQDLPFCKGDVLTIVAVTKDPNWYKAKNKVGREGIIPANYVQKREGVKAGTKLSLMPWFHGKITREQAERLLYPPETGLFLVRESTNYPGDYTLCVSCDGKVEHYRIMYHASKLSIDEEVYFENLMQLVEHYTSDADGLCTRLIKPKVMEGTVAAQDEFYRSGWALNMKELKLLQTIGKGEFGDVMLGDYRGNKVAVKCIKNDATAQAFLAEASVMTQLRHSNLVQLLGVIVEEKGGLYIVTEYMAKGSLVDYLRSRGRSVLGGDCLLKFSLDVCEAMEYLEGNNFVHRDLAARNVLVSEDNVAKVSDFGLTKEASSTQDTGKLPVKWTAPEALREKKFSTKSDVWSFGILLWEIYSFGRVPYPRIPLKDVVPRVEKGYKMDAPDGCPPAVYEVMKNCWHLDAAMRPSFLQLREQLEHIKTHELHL
# [4] = molecular target: Serine/threonine-protein kinase Nek11 (Homo sapiens) (UniProt Q8NG66); experiment: Binding affinity to wild-type human partial length NEK11 (M1 to E313 residues) expressed in mammalian expression system assessed as residual binding level at 10 uM by Kinomescan method relative to control
# [5] = molecular target: Non-receptor tyrosine-protein kinase TYK2 (Homo sapiens) (UniProt P29597); experiment: Binding affinity to wild-type human partial length TYK2 JH2 pseudokinase domain (G556 to D888 residues) expressed in mammalian expression system assessed as residual binding level at 10 uM by Kinomescan method relative to control
# [6] = molecular target: CDK4/Cyclin D3 (Homo sapiens) (UniProt P11802+P30281); experiment: Binding affinity to wild-type human full length CDK4/cyclinD3 (M1 to E303 residues) expressed in mammalian expression system assessed as residual binding level at 10 uM by Kinomescan method relative to control
# [7] = molecular target: Transient receptor potential cation channel subfamily M member 6 (Homo sapiens) (UniProt Q9BX84); experiment: Binding affinity to wild-type human partial length TRPM6 (Q1723 to I1998 residues) expressed in mammalian expression system assessed as residual binding level at 10 uM by Kinomescan method relative to control
# [8] = molecular target: Mitogen-activated protein kinase kinase kinase 1 (Homo sapiens) (UniProt Q13233); experiment: Binding affinity to wild-type human partial length MAP3K1 (L1202 to W1512 residues) expressed in mammalian expression system assessed as residual binding level at 10 uM by Kinomescan method relative to control
# [9] = molecular target: Serine/threonine-protein kinase ULK3 (Homo sapiens) (UniProt Q6PHR2); experiment: Binding affinity to wild-type human partial length ULK3 (M1 to Q290 residues) expressed in mammalian expression system assessed as residual binding level at 10 uM by Kinomescan method relative to control
# [10] = molecular target: Interferon-induced, double-stranded RNA-activated protein kinase (Homo sapiens) (UniProt P19525); experiment: Binding affinity to wild-type human partial length PRKR (F247 to C551 residues) expressed in bacterial expression system assessed as residual binding level at 10 uM by Kinomescan method relative to control
# [11] = molecular target: Fibroblast growth factor receptor 3 (Homo sapiens) (UniProt P22607); experiment: Binding affinity to wild-type human partial length FGFR3 (R442 to S771 residues) expressed in bacterial expression system assessed as residual binding level at 10 uM by Kinomescan method relative to control
# Fibroblast growth factor receptor 3 (Homo sapiens), sequence (P22607 23-806 limits assumed): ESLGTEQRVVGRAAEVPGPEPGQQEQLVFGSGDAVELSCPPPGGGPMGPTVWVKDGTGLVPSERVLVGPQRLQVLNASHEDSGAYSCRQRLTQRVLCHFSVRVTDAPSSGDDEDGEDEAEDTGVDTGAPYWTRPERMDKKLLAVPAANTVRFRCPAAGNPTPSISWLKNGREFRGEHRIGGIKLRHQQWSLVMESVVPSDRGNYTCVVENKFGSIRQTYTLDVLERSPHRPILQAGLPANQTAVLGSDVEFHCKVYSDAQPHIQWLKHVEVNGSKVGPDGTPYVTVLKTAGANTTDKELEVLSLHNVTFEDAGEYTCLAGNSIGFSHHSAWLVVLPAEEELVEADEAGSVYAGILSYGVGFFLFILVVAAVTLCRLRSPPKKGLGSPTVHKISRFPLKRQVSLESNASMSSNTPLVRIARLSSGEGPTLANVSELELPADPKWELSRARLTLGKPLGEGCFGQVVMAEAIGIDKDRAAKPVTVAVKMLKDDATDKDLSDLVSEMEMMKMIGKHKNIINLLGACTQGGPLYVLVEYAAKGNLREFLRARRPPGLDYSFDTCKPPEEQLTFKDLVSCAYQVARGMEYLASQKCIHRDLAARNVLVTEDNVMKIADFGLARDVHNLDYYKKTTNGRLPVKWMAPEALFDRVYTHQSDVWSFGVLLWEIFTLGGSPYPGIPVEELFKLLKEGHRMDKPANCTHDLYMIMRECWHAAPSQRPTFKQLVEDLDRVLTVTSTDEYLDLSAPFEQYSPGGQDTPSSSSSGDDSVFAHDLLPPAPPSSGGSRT
# [12] = molecular target: Cyclin-dependent kinase 4/cyclin D1 (Homo sapiens) (UniProt P11802+P24385); experiment: Binding affinity to wild-type human full length CDK4/cyclinD1 (M1 to E303 residues) expressed in mammalian expression system assessed as residual binding level at 10 uM by Kinomescan method relative to control
# [13] = molecular target: MAP/microtubule affinity-regulating kinase 4 (Homo sapiens) (UniProt Q96L34); experiment: Binding affinity to wild-type human partial length MARK4 (K29 to G340 residues) expressed in bacterial expression system assessed as residual binding level at 10 uM by Kinomescan method relative to control
# MAP/microtubule affinity-regulating kinase 4 (Homo sapiens), sequence (Q96L34 whole entry, the tested form may be a part): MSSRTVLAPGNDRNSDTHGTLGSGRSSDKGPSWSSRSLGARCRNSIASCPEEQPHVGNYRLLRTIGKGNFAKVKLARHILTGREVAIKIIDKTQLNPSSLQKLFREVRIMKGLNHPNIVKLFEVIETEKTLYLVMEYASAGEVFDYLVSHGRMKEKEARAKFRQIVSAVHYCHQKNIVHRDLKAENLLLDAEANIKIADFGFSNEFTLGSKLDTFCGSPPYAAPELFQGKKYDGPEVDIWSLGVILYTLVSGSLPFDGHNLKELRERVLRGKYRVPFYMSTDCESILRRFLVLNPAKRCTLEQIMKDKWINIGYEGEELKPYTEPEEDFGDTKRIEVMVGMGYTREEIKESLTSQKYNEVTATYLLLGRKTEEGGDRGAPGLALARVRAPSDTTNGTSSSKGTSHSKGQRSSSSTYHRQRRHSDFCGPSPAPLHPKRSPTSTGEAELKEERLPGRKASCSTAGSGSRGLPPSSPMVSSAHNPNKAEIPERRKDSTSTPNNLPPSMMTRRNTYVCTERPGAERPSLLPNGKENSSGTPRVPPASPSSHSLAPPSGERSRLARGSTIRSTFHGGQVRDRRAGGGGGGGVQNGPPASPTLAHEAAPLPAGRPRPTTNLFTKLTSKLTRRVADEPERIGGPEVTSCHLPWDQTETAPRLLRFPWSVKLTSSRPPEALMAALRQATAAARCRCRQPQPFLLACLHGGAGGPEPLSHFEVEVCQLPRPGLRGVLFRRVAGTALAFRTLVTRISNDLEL
# [14] = molecular target: Serine/threonine-protein kinase mTOR (Homo sapiens) (UniProt P42345); experiment: Binding affinity to wild-type human partial length MTOR (L1382 to W2549 residues) expressed in mammalian expression system assessed as residual binding level at 10 uM by Kinomescan method relative to control
# [15] = molecular target: Serine/threonine-protein kinase MRCK alpha (Homo sapiens) (UniProt Q5VT25); experiment: Binding affinity to wild-type human partial length MRCKA (L57 to V418 residues) expressed in bacterial expression system assessed as residual binding level at 10 uM by Kinomescan method relative to control
# [16] = molecular target: Mitogen-activated protein kinase kinase kinase 7 (Homo sapiens) (UniProt O43318); experiment: Binding affinity to wild-type human partial length TAK1 (M1 to Q303 residues) expressed in mammalian expression system assessed as residual binding level at 10 uM by Kinomescan method relative to control
# [17] = system: Epidermal growth factor receptor (Homo sapiens), P00533 [UNDEFINED MUTATION]; experiment: Binding affinity to human partial length EGFR L747-E749del/A750P mutant expressed in bacterial expression system assessed as residual binding level at 10 uM by Kinomescan method relative to control
# Cholinesterase = Cholinesterase (Homo sapiens, UniProt P06276); experiment: Inhibition of human serum BChE using BTCh as substrate preincubated for 20 mins followed by substrate addition and measured for 3 mins by Ellman's method
# Cholinesterase, sequence (P06276 whole entry, the tested form may be a part): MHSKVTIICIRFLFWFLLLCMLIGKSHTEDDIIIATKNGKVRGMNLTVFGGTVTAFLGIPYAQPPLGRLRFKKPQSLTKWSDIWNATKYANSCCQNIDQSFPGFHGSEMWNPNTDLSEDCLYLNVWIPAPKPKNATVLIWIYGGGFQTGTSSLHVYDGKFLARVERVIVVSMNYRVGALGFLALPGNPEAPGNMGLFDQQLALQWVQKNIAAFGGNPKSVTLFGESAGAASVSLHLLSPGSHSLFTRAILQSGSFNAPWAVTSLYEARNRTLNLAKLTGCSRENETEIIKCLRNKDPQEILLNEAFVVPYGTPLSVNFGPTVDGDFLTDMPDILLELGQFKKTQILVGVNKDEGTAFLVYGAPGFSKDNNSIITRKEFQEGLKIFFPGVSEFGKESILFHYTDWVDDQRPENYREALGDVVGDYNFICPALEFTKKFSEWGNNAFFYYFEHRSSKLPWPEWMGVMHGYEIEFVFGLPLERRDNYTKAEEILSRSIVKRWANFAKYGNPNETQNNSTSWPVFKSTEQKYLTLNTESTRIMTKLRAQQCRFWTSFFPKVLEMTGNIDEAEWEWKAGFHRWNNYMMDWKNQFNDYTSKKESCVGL
# [18] = molecular target: Mitogen-activated protein kinase 7 (Homo sapiens) (UniProt Q13164); experiment: Binding affinity to wild-type human partial length ERK5 (M1 to A409 residues) expressed in bacterial expression system assessed as residual binding level at 10 uM by Kinomescan method relative to control
# Mitogen-activated protein kinase 7 (Homo sapiens), sequence (Q13164 2-816 limits assumed): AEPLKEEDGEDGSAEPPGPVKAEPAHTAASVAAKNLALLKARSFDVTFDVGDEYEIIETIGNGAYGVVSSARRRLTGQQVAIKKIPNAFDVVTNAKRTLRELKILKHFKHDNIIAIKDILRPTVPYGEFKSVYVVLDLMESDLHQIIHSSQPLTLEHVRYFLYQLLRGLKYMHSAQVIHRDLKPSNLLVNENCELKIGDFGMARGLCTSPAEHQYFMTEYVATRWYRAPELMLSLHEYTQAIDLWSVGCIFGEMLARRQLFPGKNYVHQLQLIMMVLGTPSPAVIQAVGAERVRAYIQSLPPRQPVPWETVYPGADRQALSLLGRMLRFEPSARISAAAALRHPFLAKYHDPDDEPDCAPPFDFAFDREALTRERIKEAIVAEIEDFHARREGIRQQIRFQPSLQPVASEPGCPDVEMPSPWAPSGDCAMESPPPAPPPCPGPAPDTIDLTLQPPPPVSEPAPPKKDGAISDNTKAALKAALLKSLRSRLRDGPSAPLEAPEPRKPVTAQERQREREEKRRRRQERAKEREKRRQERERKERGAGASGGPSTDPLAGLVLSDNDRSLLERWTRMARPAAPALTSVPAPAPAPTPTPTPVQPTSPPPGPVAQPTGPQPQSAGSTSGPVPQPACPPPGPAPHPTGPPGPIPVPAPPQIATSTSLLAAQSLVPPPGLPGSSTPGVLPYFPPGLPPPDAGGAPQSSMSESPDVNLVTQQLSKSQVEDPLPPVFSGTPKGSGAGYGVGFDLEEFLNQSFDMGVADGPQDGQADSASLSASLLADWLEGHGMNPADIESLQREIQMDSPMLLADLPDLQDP
# [19] = molecular target: Ribosomal protein S6 kinase alpha-2 (Homo sapiens) (UniProt Q15349); experiment: Binding affinity to wild-type human partial length N-terminal RSK3 kinase domain 1 (M1 to Q385 residues) expressed in bacterial expression system assessed as residual binding level at 10 uM by Kinomescan method relative to control
# [20] = molecular target: Phosphatidylinositol 3-kinase C2 domain-containing subunit gamma (Homo sapiens) (UniProt O75747); experiment: Binding affinity to wild-type human partial length PIK3C2G (M1 to I1446 residues) expressed in mammalian expression system assessed as residual binding level at 10 uM by Kinomescan method relative to control
# [21] = molecular target: Ephrin type-B receptor 2 (Homo sapiens) (UniProt P29323); experiment: Binding affinity to wild-type human partial length EPHB2 (I597 to L902 residues) expressed in bacterial expression system assessed as residual binding level at 10 uM by Kinomescan method relative to control
# Ephrin type-B receptor 2 (Homo sapiens), sequence (P29323 whole entry, the tested form may be a part): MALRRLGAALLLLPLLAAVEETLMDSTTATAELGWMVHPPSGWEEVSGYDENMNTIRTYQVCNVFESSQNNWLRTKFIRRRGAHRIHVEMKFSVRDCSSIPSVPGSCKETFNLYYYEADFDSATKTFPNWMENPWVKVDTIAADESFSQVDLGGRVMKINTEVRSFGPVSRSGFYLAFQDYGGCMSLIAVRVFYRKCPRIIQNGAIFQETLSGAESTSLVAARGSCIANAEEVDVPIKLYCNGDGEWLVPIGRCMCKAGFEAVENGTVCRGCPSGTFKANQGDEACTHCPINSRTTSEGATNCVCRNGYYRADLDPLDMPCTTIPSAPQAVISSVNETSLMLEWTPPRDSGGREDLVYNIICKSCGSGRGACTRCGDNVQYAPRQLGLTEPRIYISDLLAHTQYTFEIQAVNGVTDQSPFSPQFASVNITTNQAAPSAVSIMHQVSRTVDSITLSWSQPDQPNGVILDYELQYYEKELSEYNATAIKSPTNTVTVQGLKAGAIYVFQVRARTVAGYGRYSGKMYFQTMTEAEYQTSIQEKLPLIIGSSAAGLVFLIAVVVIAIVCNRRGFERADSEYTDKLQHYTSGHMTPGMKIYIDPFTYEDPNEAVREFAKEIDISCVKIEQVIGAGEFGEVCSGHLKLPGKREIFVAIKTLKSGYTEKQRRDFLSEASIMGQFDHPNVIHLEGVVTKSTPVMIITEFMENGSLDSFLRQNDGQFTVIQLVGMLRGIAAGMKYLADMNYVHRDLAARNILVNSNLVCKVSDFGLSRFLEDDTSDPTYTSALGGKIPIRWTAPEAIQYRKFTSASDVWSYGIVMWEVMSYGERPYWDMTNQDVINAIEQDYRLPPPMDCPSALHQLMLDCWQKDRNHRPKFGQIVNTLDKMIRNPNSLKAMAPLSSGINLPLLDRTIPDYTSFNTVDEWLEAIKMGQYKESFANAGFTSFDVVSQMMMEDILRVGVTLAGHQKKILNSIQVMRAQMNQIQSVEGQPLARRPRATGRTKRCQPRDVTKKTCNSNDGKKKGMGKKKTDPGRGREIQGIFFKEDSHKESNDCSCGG
# [22] = system: Hepatocyte growth factor receptor (Homo sapiens), P08581 [M1250T]; experiment: Binding affinity to human partial length MET M1250T mutant (D1010 to S1367 residues) expressed in bacterial expression system assessed as residual binding level at 10 uM by Kinomescan method relative to control
# [23] = molecular target: Proto-oncogene tyrosine-protein kinase ROS (Homo sapiens) (UniProt P08922); experiment: Binding affinity to wild-type human partial length ROS1 (A1921 to N2240 residues) expressed in bacterial expression system assessed as residual binding level at 10 uM by Kinomescan method relative to control
smiles,measurement,setting,value
O=C(Nc1cc(-c2cn(CCNc3c4c(nc5ccccc35)CCCC4)nn2)ccn1)Nc1cccc2c1C1CCCCN1C2=O (racemic),Activity,[1],60%
same,Activity,[2],9.5%
same,Activity,[3],77%
same,Activity,[4],100%
same,Activity,[5],19%
same,Activity,[6],1.4%
same,Activity,[7],100%
same,Activity,[8],100%
same,Activity,[9],43%
same,Activity,[10],45%
same,Activity,[11],54%
same,Activity,[12],1.1%
same,Activity,[13],35%
same,Activity,[14],100%
same,Activity,[15],97%
same,Activity,[16],1.6%
same,Activity,[17],68%
same,IC50,Cholinesterase,301 nM
same,Activity,[18],57%
same,Activity,[19],7.1%
same,Activity,[20],44%
same,Activity,[21],61%
same,Activity,[22],91%
same,Activity,[23],100%
